Laboratory results taken from patent US6743413B1, “Suspension aerosol formulations” (3M Company, priority 1991, dated 2004).
“And” between values parts separate entries of the source, which are not always exact repeats. Equal entries are not always repeated.

Key:
Assay type in all cases: physicochemical
[1] = Visual assessment of suspension formulations by time lapse photography 10 and 30 seconds after agitation; set-up: key: + = visually acceptable formulation; − = visually unacceptable formulation; ? = border line acceptable formulation; conditions: 10 and 30 seconds post agitation
[2] = Suspension aerosol particle size analysis (Malvern Mastersizer, laser diffraction); conditions: Example 7: 0.02 percent by weight in HFC 134a
Experimental: The particle size distribution of drug in the aerosol suspension is assayed by Malvern Mastersizer™ Particle Size Analyser using a suspending medium of 0.01 percent sorbitan trioleate in heptane.
Using a primed connector, shots are fired via an injection adapter into the Malvern sample cell containing the suspending medium. When a suitable level of obscuration (in the range 8.5-9) is achieved, analysis by laser diffraction is then performed.
The results below show the percentage by weight of particles having particle size below 10.7 μm, below 5.07 μm, and below 1.95 μm. The “Initial” entries represent the average of three independent determinations, and the “25° C.”, “CYC”, and “HHC” entries represent a single determination after one month under the indicated storage conditions.

[3] = Twin stage impinger deposition of emitted dose; conditions: Example 7: 0.02 percent by weight in HFC 134a
Text: Glass impinger apparatus A (BP198 Appendix XV11C) is used. To determine the deposition of the emitted dose, the apparatus is assembled as described. The oral adapter is attached to the throatpiece of the apparatus, and a suitable pump is connected to the outlet of the apparatus. The air flow through the apparatus is 60 ±5 liters per minute measured at the inlet of the throat. […] Ten shots are then fired via the adapter into the apparatus from the canister.
The apparatus is then dismantled and each stage washed with the appropriate amount of methanol. The washings are assayed by HPLC to give the content of the drug found at each stage and also the material balance.

[4] = Visual observation of suspension aerosol formulations (dispersion, flocculation, settling, creaming, suitability for metered dose inhaler); conditions: Example 3: 1:1 (W/W) HFC 134a/HFC 227 versus corresponding formulations in HFC 134a alone
Experimental: (§1) For each of the micronized drug substances A-G set forth below, formulations were prepared at drug concentrations of 0.017 percent, 0.039 percent, 0.083 percent, 0.41 percent, and 1.6 percent by weight based on the total weight of the formulation (corresponding to 0.20 mg/mL, 0.50 mg/mL, 1.0 mg/mL, 5.0 mg/Ml, and 20 mg/mL, respectively). The formulations were prepared by dispersing micronized drug in HFC 134a in a sealed 15 mL clear PET vial using ultrasonic energy.
For each propellant mix the range of drug concentrations used in Example 1 was used.
BDP formulations were prepared at 0.070 percent by weight (1.0 mg/mL) in HFC 227 and at 0.38 percent by weight (5.0 mg/mL) in a 1:1 mixture of HFC 227 and HFC 134a.
Formulations of salmeterol free base at 0.02 percent by weight and 0.05 percent by weight were prepared in HFC 134a and in HFC 227 by placing the drug and 5 mL of glass beads into a 15 mL glass vial, crimping on a continuous valve, and adding the appropriate amount of propellant. The formulations were shaken on a paint shaker for 10 min in order to disperse the drug.
The vial was then shaken on a paint shaker, chilled, and the contents transferred to 10 mL vials fitted with the metered dose valve. […] Valve delivery was measured through the life of the formulations.

[5] = Visual assessment of suspension formulations by time lapse photography 10 and 30 seconds after agitation; set-up: key: + = visually acceptable formulation; − = visually unacceptable formulation; ? = border line acceptable formulation
Experimental: as §1
Using time lapse photography 10 and 30 seconds after agitation the formulations were assessed as follows: […]
The formulations were photographed using time lapse photography at 10 and 30 seconds post agitation and were assessed as follows: […]

[6] = 1 Month CYC (cycled between 15° C. and 37° C.)
[7] = 1 Month HHC (approximately 40° C. and 85 percent relative humidity)
[8] = Initial (average of three determinations)

With `COc1ccc(C[C@@H](C)NC[C@H](O)c2ccc(O)c(NC=O)c2)cc1.COc1ccc(C[C@@H](C)NC[C@H](O)c2ccc(O)c(NC=O)c2)cc1.O=C(O)/C=C/C(=O)O` [Formoterol fumarate] the “Assessment (visual)” value ([1]; Example 3: drug concentration 0.015 % in 1:1 HFC 134a/HFC 227) was “+”, the “Assessment (visual)” value ([1]; Example 3: drug concentration 0.038 % in 1:1 HFC 134a/HFC 227) was “+” and the “Assessment (visual)” value ([1]; Example 3: drug concentration 0.076 % in 1:1 HFC 134a/HFC 227) was “?”. The “Assessment (visual)” value ([1]; Example 3: drug concentration 0.38 % in 1:1 HFC 134a/HFC 227) was “?”, the “Assessment (visual)” value ([1]; Example 3: drug concentration 1.5 % in 1:1 HFC 134a/HFC 227) was “+” and the “particles with particle size <1.95 μm” value [2, 6] was 36.1 Percent by weight and 32.5 Percent by weight. For the same compound, the “particles with particle size <5.07 μm” value [2, 6] was 92.9 Percent by weight and 92.5 Percent by weight, the “particles with particle size <10.7 μm” value [2, 6] was 99.8 Percent by weight and the “particles with particle size <1.95 μm” value [2, 7] was 33.5 Percent by weight and 34.9 Percent by weight. For the same compound, the “particles with particle size <5.07 μm” value [2, 7] was 93.1 Percent by weight and 92.4 Percent by weight, the “particles with particle size <10.7 μm” value [2, 7] was 99.8 Percent by weight and 99.7 Percent by weight and the “particles with particle size <1.95 μm” value ([2]; 1 Month stored at 25° C.) was 36.3 Percent by weight and 31.7 Percent by weight. The “particles with particle size <5.07 μm” value ([2]; 1 Month stored at 25° C.) was 93.6 Percent by weight and 94.8 Percent by weight, the “particles with particle size <10.7 μm” value ([2]; 1 Month stored at 25° C.) was 99.8 Percent by weight and 99.9 Percent by weight and the “particles with particle size <1.95 μm” value [2, 8] was 32.2 Percent by weight and 30.5 Percent by weight. The “particles with particle size <5.07 μm” value [2, 8] was 93.4 Percent by weight and 92.6 Percent by weight, the “particles with particle size <10.7 μm” value [2, 8] was 99.6 Percent by weight and 98.0 Percent by weight and the “% Stem/Adapter” value ([3]; 1 Month (25° C.)) was 52.0% and 52.5%. The “%Stage 1” value ([3]; 1 Month (25° C.)) was 16.7% and 23.9%, the “%Stage 2” value ([3]; 1 Month (25° C.)) was 31.3% and 23.6% and the “% Stem/Adapter” value ([3]; 1 Month (CYC)) was 16.8% and 24.6%. The “%Stage 1” value ([3]; 1 Month (CYC)) was 53.6% and 47.6%, the “%Stage 2” value ([3]; 1 Month (CYC)) was 29.7% and 27.8% and the “%Stage 1” value ([3]; 1 Month (HHC)) was 37.0% and 60.4%. The “%Stage 2” value ([3]; 1 Month (HHC)) was 29.0% and 24.3%, the “% Stem/Adapter” value ([3]; Initial) was 26.0% and 24.7% and 28.5% and the “%Stage 1” value ([3]; Initial) was 37.5% and 35.3% and 36.7%. The “%Stage 2” value ([3]; Initial) was 36.5% and 40.0% and 34.8%, the “flocculation and sedimentation rate” value [4] was “reduced flocculation and a slower sedimentation rate” and the “visual assessment of formulation” value ([5]; Example 1: drug concentration 0.017 % in HFC 134a alone) was “+”. The “visual assessment of formulation” value ([5]; Example 1: drug concentration 0.039 % in HFC 134a alone) was “?”, the “visual assessment of formulation” value ([5]; Example 1: drug concentration 0.083 % in HFC 134a alone) was “?” and the “visual assessment of formulation” value ([5]; Example 1: drug concentration 0.41 % in HFC 134a alone) was “−”. For the same compound, the “visual assessment of formulation” value ([5]; Example 1: drug concentration 1.63 % in HFC 134a alone) was “+”.
